We go through six molecules from patent US11859205B2, “Medium for culturing stem cells” (AJINOMOTO CO., INC., priority 2013, dated 2024).

The structures appear in SMILES notation.

In one data set the test system is iPS cells. Put plainly: Viable iPS cell number with purified albumin re-carrying fatty acid (Example 4, FIG. 4). The settings on record: fatty acid re-adsorbed to albumin, 1 week. It counts as cell-based, human. As to the method:
Proliferative effect of various test compounds on induced pluripotent stem cell (iPS cell) was evaluated. As the iPS cell, 201B7 strain purchased from iPS Academia Japan, Inc. was used. Cell culture was performed under conditions of 5% CO2/37° C. and using a culture vessel (Nippon Becton Dickinson Company, Ltd., Falconculture petri dish or Falconculture plate) coated with a basal membrane matrix.
Various test compounds were added at given concentrations to a medium of “E8” composition (disclosed in Nature Methods, 2011, 8, 424-429, which is incorporated herein by reference in its entirety) currently considered to be the minimum composition for cultivating human pluripotent stem cells, and used for culture, from which the effect was studied.
The solution was shaken at 37° C. for 7 hours, left standing at 4° C. overnight, and filtered with a 0.22 μm syringe filter. […] The mixture was added to a medium such that the final concentration of albumin was 2.6 g/L.
The final concentration in and the amount of addition to the medium are also the same.
Using the medium produced as mentioned above, the influence of each fatty acid on the proliferation of iPS cells was studied. A 6-well plate coated with a fragment containing an active domain of laminin 511 at 5 μg/well (iMatrix-511 (Nippi, Incorporated)) as a basal membrane matrix was used. iPS cells were single-cell seeded at 13,000 cells/well and cultured for 1 week. Y-27632 (NACALAI TESQUE, INC.: 08945-84) was added at a final concentration of 10 μM only to a medium to be used for seeding. As a positive control, iPS cells were cultured using an albumin free of re-adsorption of fatty acid, i.e., albumin after a fatty acid removal treatment.
The cells were detached from each well by TrypLE Select (Life Technologies: 12563-011), and the number of the viable cells was measured.

The subject of a further data set is stem cells. The settings on record: WO 2013/006675; cited from earlier work.
Where [1] appears, read: final concentration in medium 28 μM.
The mark [2] stands for this setting: final concentration in medium 57 μM.

Take `CCCCC/C=C\C/C=C\C/C=C\C/C=C\CCCC(=O)O` [arachidonic acid]: the “effect on proliferation of iPS cells (number of viable cells)” value (“effect on proliferation of iPS cells” for short) in the data set on iPS cells (setting [1]) and in the data set on iPS cells (setting [2]) was “the cells died” throughout.
On to `CCCCC/C=C\C/C=C\CCCCCCCC(=O)O` [linoleic acid], for which the “effect on proliferation of iPS cells” value is given as “markedly suppressed” in the data set with iPS cells (setting [1]) and “the cells died” in the data set with iPS cells (setting [2]).
Regarding `CCCCCCCC(=O)O` [octanoic acid], in the data set with stem cells, the “effect on culture of stem cells” value was “harmful”.
For the molecule `CCCCCCCC/C=C\CCCCCCCC(=O)O` [oleic acid], the “effect on proliferation of iPS cells” value with iPS cells (setting [1]) and with iPS cells (setting [2]) was “smaller than that of the positive control” each time.
With `CCCCCCCCCCCCCCCC(=O)O` [palmitic acid], the “effect on proliferation of iPS cells” value in the data set with iPS cells (setting [1]) and in the data set on iPS cells (setting [2]) was “the cells died” throughout.
Consider `CCCCCCCCCCCCCCCCCC(=O)O` [stearic acid], for which the “effect on proliferation of iPS cells” value in the data set on iPS cells (setting [1]) and in the data set on iPS cells (setting [2]) was “the cells died” throughout.
